# Laboratory results from patent publication US20110076258A1, “METHODS OF MODULATING T CELL- DEPENDENT IMMUNE RESPONSES” (Converge Biotech Inc., priority 2008, published 2011).
# What was measured:
# [1] = test system: naïve CD4^+ T cells / CD4^+CD25^+ natural Treg cells; assay: Treg differentiation and expansion in vitro (anti-CD3, irradiated splenocytes, IL-2); assay type: cell-based
# Description: Treg cell generation was analyzed after 7-10 days of culture by flow cytometry.
# [2] = test system: cd3ε^−/− mice; assay: Treg cell generation in murine model of inflammatory bowel disease; assay type: in vivo, mouse; settings: 3 mM oATP in 100 μl i.v., with transfer or 16 hours after; day 28
# From the text: FIG. 14: Experimental protocol for Treg generation in a mouse model of inflammatory bowel disease. • CD3ε^−/− mice were adoptively transferred with 2×10^5 naïve CD4^+ T cells; 2×10^5 naïve CD4^+ T cells with oATP; 2×10^5 naïve CD4^+ T cells with administration of oATP sixteen hours after the transfer; or 2×10^5 naïve CD4^+ T cells with 10^5 natural Treg cells. oATP-treated animals received daily intravenous oATP administration on days 2-5, no oATP administration on days 6 and 7, and daily intravenous oATP administration on days 8-12. Mice were analyzed for CD4^+ subpopulations on day 28 (See Example 12).
# FIG. 15: Treg cell generation with oATP treatment in a mouse model of inflammatory bowel disease. • a) Colons, spleens and mesenteric lymph nodes of test animals were assessed for inflammation fourteen days after the last injection of oATP (see Example 12). • b) FACS analysis identifying the percentage of CD4^+CD25^highFoxp3 regulatory T cells. • c) FACS analysis identifying effector memory T cells as CD4^+CD44^+CD62L^− or CD4^+CD25^+CD69^+. The ratio of Treg cells to effector memory T cells is shown. […]
# Four experimental groups of CD3ε^−/− mice were tested for Treg generation (FIG. 14). […] Mice were analyzed on day 28.
# The colons of the animals were assessed for inflammation 14 days after the last injection of oATP (FIG. 15A). […]
# [3] = test system: Egr2 and Egr3; assay: Real-time PCR of anergy related genes Egr2 and Egr3; assay type: cell-based, mouse; settings: 2 h and 16 h after T cell activation
# From the text: NFAT nuclear translocation without concomitant MAPK activation, which can be obtained by ionomycin treatment, implements a transcriptional program leading to T cell anergy (Macian et al., Cell 109:719-731 (2002)). […] Then, we hypothesized that activation of T cells in the presence of oATP could induce T cell anergy. […] The effect of oATP was not due to altered turn-over of the TCR/CD3 complex at the cell surface, as determined by FACS analysis (data not shown).
# [4] = test system: crt^−/− FLC; assay: Graft-versus-host disease-like phenotype of crt^−/− fetal liver chimeras; assay type: in vivo, mouse
# Description: Phenotype of crt^−/− FLC before treatment and after daily intravenous treatment with PBS or 6 mM oATP (100 μl) for 2 weeks (see Example 16).
# Histopathological evaluation of skin biopsies executed in a blinded fashion. The graphs show selected examples of dramatic results seen with oATP treatment (see Example 16).
# Recombinase-deficient Balb/c mice were reconstituted with hematopoietic progenitors from fetal liver of calreticulin (crt)^−/− and +/+E13 embryos (FIG. 21). The phenotype of the resulting crt^−/− fetal liver chimera (FLC), which mimics graft-versus-host disease (GVHD) (see, e.g., Porcellini et al., J Exp Med 203:461-471 (2006)), was assessed at weeks 8, 10 and 12 after transfer and compared to the phenotype of the crt^+/+ FLC at week 12.
# crt^+/+ and crt^−/− FLCs received daily intravenous treatment with PBS or 6 mM oATP (100 μL) for two weeks.
smiles,measurement,setting,value
Nc1ncnc2c1ncn2[C@@H](C=O)O[C@@H](C=O)COP(=O)(O)OP(=O)(O)OP(=O)(O)O [oATP],Foxp3 by quantitative RT-PCR,[1]; first 6 days after anti-CD3 stimulation,progressive upregulation
same,percentage of CD4^+CD25^highFoxp3^+ Treg cells,"[1]; naïve CD4^+ T cells, oATP 100 μM",significantly enhanced
same,"expansion of Treg cells, Foxp3 expression level","[1]; sorted CD4^+CD25^+ natural Treg cells, oATP 100 μM",higher expression levels of Foxp3
same,Treg generation from naïve T cells,[2],most effective when oATP is present during the first activation of the naïve T cells
same,Egr2 and Egr3 transcripts,[3],significant upregulation
same,histopathological evaluation of skin biopsies (inflammation and epidermal hyperplasia),[4]; blinded,histological improvement
same,blepharitis,[4]; daily i.v. 6 mM oATP (100 μL) for two weeks,dramatically ameliorated
